Test results published in patent US12180207B2 (ARRAY BIOPHARMA INC., priority 2018, dated 2024).

Key:
[1] = target: recombinant human FGFR1 catalytic domain (amino acids 308-731) (Homo sapiens (Human), UniProt P11362); experiment: FGFR1 enzyme activity assay (LanthaScreen TR-FRET); assay type: biochemical; settings: 20 min incubation at 22° C., average of multiple determinations if made, read-out: FGFR1 Enz FRET IC50
Procedure, shortened: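 His-tagged FGFR1 kinase domain with 100 nM Alexa Fluor 647-poly-GT peptide and ATP in pH 7.5 HEPES/MgCl2 buffer with 2% DMSO, 20 min at 22 °C. Quenched with EDTA plus 2 nM Eu-PY20 antibody and read after 60 min. IC50 comes from a 4-parameter fit of percent of control.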

[2] = target: dephosphorylated FGFR1 (SEQ ID NO: 1, amino acids 458 to 765) (Homo sapiens (Human), UniProt P11362); experiment: FGFR enzyme binding assay (HTRF tracer displacement), FGFR1; settings: 5 nM dephosphorylated FGFR1, average of multiple determinations if made
Procedure, shortened: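 Kinase and tracer were incubated with compound for 60 minutes at 22° C. Tracer displacement was then measured by HTRF, and results were expressed as POC with 1 μM control inhibitor defining full displacement.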

[3] = target: recombinant human FGFR2 cytoplasmic domain (amino acids 403-822) (Homo sapiens (Human), UniProt P21802); experiment: FGFR2 enzyme activity assay (LanthaScreen TR-FRET); assay type: biochemical; settings: 15 μM ATP, 20 min incubation at 22° C., average of multiple determinations if made, read-out: FGFR2 Enz FRET IC50
Procedure, shortened: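 Substrate phosphorylation was read by TR-FRET using Eu-PY20 antibody (60 min, 22 °C) after a 20 min, 22 °C reaction. The reaction used 15 μM ATP, 100 nM fluorescent poly-GT peptide and His-tagged FGFR2 403-822 ([…]) at pH 7.5 with 2% DMSO.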

[4] = target: FGFR1 (SEQ ID NO: 1, amino acids 458-765) (Homo sapiens (Human), UniProt P11362); experiment: LC/MS FGFR1 kobs assay (covalent protein modification); assay type: binding; settings: 500 nM FGFR1, 3 μM compound
Procedure, shortened: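 Covalent labeling of FGFR1 kinase domain (aa 458-765) tracked over time by intact-protein LC/MS after formic acid quench. kobs derived by fitting DMSO-normalized percent unmodified FGFR1 to an exponential decay model.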

[5] = target: recombinant human FGFR3 (amino acids R397-T806) (Homo sapiens (Human), UniProt P22607); experiment: FGFR3 enzyme activity assay (LanthaScreen TR-FRET); assay type: biochemical; settings: 25 μM ATP, 10 min incubation at 22° C., average of multiple determinations if made, read-out: FGFR3 Enz FRET IC50
Procedure, shortened: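 GST-HIS6-tagged human FGFR3 (R397-T806) was reacted with 100 nM Alexa Fluor 647-Poly-GT substrate and 25 μM ATP plus compound in HEPES/MgCl2/Triton buffer, pH 7.5, 2% DMSO, for 10 min at 22 °C.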

recombinant human FGFR2 cytoplasmic domain (amino acids 403-822), sequence (P21802 402-821): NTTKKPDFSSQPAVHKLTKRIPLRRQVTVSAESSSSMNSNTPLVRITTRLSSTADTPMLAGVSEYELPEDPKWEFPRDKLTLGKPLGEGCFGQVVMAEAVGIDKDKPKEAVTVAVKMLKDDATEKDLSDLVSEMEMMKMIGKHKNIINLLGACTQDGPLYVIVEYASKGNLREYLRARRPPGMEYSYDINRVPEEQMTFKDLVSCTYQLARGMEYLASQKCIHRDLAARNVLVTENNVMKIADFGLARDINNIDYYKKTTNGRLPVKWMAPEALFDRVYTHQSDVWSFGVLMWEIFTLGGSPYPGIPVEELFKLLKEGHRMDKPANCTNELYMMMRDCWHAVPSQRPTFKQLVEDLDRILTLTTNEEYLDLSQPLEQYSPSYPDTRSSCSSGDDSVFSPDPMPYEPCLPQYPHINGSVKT
recombinant human FGFR1 catalytic domain (amino acids 308-731), sequence (P11362 other isoform, or with tags, fused parts or gaps): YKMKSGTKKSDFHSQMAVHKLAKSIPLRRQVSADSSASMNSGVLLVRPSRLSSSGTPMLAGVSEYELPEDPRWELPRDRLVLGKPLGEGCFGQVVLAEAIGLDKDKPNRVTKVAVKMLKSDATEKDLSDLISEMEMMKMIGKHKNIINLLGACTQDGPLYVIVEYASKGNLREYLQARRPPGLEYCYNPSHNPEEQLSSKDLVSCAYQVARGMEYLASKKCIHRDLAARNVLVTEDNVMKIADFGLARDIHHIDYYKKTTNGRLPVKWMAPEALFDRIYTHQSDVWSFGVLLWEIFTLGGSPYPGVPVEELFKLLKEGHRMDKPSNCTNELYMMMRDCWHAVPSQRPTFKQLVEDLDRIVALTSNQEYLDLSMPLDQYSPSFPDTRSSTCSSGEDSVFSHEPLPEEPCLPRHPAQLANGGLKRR
FGFR1 (SEQ ID NO: 1, amino acids 458-765), sequence (P11362 458-765): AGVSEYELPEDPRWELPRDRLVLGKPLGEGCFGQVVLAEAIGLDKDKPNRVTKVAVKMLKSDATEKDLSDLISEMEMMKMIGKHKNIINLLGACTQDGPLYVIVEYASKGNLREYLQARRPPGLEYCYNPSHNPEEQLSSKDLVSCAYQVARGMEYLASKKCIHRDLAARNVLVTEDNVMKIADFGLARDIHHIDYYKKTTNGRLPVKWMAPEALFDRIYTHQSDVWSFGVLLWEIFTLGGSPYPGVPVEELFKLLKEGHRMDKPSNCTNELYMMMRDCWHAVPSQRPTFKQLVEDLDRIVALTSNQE
dephosphorylated FGFR1 (SEQ ID NO: 1, amino acids 458 to 765), sequence (P11362 458-765): as above
recombinant human FGFR3 (amino acids R397-T806), sequence (P22607 397-806): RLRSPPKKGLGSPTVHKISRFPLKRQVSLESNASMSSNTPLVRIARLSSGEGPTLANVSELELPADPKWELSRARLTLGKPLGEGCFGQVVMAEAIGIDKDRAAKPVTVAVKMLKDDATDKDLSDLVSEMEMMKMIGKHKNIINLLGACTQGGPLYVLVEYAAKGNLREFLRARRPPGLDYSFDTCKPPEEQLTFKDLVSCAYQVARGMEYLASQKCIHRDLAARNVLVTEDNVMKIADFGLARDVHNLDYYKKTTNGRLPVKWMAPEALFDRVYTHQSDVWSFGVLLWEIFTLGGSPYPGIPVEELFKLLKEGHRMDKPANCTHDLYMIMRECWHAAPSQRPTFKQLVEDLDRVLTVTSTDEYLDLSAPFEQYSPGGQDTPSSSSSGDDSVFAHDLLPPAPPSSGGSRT

| IC50 [1] [nM] | IC50 [2] [nM] | IC50 [3] [nM] | FGFR1 Enz kobs [4] [min⁻¹] | IC50 [5] [nM] | Compound |
| --- | --- | --- | --- | --- | --- |
| 8 | 84 | 3 | 0.00069 | 3 | C=CC(=O)N1CCC(C#N)(C(=O)N2CCC(n3cc(-c4cc(OC)c5c(C#N)cnn5c4)cn3)CC2)CC1 [Example 14, 6-(1-(1-(1-acryloyl-4-cyanopiperidine-4-carbonyl)piperidin-4-yl)-1H-pyrazol-4-yl)-4-methoxypyrazolo[1,5-a]pyridine-3-carbonitrile] |
| 7 | 32 | 2 | 0.00168 | 2 | C=CC(=O)N1CCC(C(=O)N2CCC(n3cc(-c4cc(OC)c5c(C#N)cnn5c4)cn3)CC2)C(F)(F)C1 (centres unmarked) [Example 15, 6-(1-(1-(1-acryloyl-3,3-difluoropiperidine-4-carbonyl)piperidin-4-yl)-1H-pyrazol-4-yl)-4-methoxypyrazolo[1,5-a]pyridine-3-carbonitrile] |
| 10 | 57 | 3 | 0.00085 | 3 | C=CC(=O)N1CC2(CCC(C(=O)N3CCC(n4cc(-c5cc(OC)c6c(C#N)cnn6c5)cn4)CC3)CC2)C1 [Example 21, 6-(1-(1-(2-acryloyl-2-azaspiro[3.5]nonane-7-carbonyl)piperidin-4-yl)-1H-pyrazol-4-yl)-4-methoxypyrazolo[1,5-a]pyridine-3-carbonitrile] |
| 21 | 112 | 5 | 0.00187 | 4 | C=CC(=O)Nc1cccc(C(=O)N2CCC(n3cc(-c4cc(OC)c5c(C#N)cnn5c4)cn3)CC2)c1 [Example 22, N-(3-(4-(4-(3-cyano-4-methoxypyrazolo[1,5-a]pyridin-6-yl)-1H-pyrazol-1-yl)piperidine-1-carbonyl)phenyl)acrylamide] |
| 36 | 431 | 12 | 0.00247 | 16 | C=CC(=O)Nc1ccc(C(=O)N2CCC[C@@H](n3cc(-c4cc(OC)c5c(C#N)cnn5c4)cn3)C2)cc1 [Example 23, (R)-N-(4-(3-(4-(3-cyano-4-methoxypyrazolo[1,5-a]pyridin-6-yl)-1H-pyrazol-1-yl)piperidine-1-carbonyl)phenyl)acrylamide] |
| 63 | 310 | 23 | 0.0025 | 31 | C=CC(=O)Nc1cccc(C(=O)N2CCC[C@@H](n3cc(-c4cc(OC)c5c(C#N)cnn5c4)cn3)C2)c1 [Example 24, (R)-N-(3-(3-(4-(3-cyano-4-methoxypyrazolo[1,5-a]pyridin-6-yl)-1H-pyrazol-1-yl)piperidine-1-carbonyl)phenyl)acrylamide] |
| 53 | 350 | 18 | 0.00103 | 12 | C=CC(=O)Nc1ccccc1C(=O)N1CCC[C@@H](n2cc(-c3cc(OC)c4c(C#N)cnn4c3)cn2)C1 [Example 25, (R)-N-(2-(3-(4-(3-cyano-4-methoxypyrazolo[1,5-a]pyridin-6-yl)-1H-pyrazol-1-yl)piperidine-1-carbonyl)phenyl)acrylamide] |
| 18 | 105 | 5 | 0.00075 | 9 | C=CC(=O)N1CC[C@H](C(=O)N2CCC(n3cc(-c4cc(OC)c5c(C#N)cnn5c4)cn3)CC2)C1 [Example 28, (S)-6-(1-(1-(1-acryloylpyrrolidine-3-carbonyl)piperidin-4-yl)-1H-pyrazol-4-yl)-4-methoxypyrazolo[1,5-a]pyridine-3-carbonitrile] |
| 24 | 251 | 8 | 0.00075 | 11 | C=CC(=O)N1CC[C@@H](C(=O)N2CCC(n3cc(-c4cc(OC)c5c(C#N)cnn5c4)cn3)CC2)C1 [Example 29, (R)-6-(1-(1-(1-acryloylpyrrolidine-3-carbonyl)piperidin-4-yl)-1H-pyrazol-4-yl)-4-methoxypyrazolo[1,5-a]pyridine-3-carbonitrile] |
| 9 | 51 | 3 | 0.00104 | 2 | C=CC(=O)N1CCC(F)(C(=O)N2CCC(n3cc(-c4cc(OC)c5c(C#N)cnn5c4)cn3)CC2)C1 (centres unmarked) [Example 30, 6-(1-(1-(1-acryloyl-3-fluoropyrrolidine-3-carbonyl)piperidin-4-yl)-1H-pyrazol-4-yl)-4-methoxypyrazolo[1,5-a]pyridine-3-carbonitrile] |
| 8 | 26 | 2 | 0.00146 | 2 | C=CC(=O)N1CCC(C#N)(C(=O)N2CCC(n3cc(-c4cc(OC)c5c(C#N)cnn5c4)cn3)CC2)C1 (centres unmarked) [Example 31, 6-(1-(1-(1-acryloyl-3-cyanopyrrolidine-3-carbonyl)piperidin-4-yl)-1H-pyrazol-4-yl)-4-methoxypyrazolo[1,5-a]pyridine-3-carbonitrile] |
| 11 | 59 | – | 0.00127 | 4 | C=CC(=O)N1CC(C(=O)N2CCC(n3cc(-c4cc(OC)c5c(C#N)cnn5c4)cn3)CC2)C1 [Example 36, 6-(1-(1-(1-acryloylazetidine-3-carbonyl)piperidin-4-yl)-1H-pyrazol-4-yl)-4-methoxypyrazolo[1,5-a]pyridine-3-carbonitrile] |
| 11 | – | 4 | 0.00324 | 8 | C=CC(=O)Nc1ccc(C(=O)N2CCC(n3cc(-c4cc(OC)c5c(C#N)cnn5c4)cn3)CC2)cc1 [Example 177, N-(4-(4-(4-(3-cyano-4-methoxypyrazolo[1,5-a]pyridin-6-yl)-1H-pyrazol-1-yl)piperidine-1-carbonyl)phenyl)acrylamide] |
| 11 | 14 | 5 | – | 3 | C=CS(=O)(=O)Nc1cccc(C(=O)N2CCC(n3cc(-c4cc(OC)c5c(C#N)cnn5c4)cn3)CC2)c1 [Example 188, N-(3-(4-(4-(3-cyano-4-methoxypyrazolo[1,5-a]pyridin-6-yl)-1H-pyrazol-1-yl)piperidine-1-carbonyl)phenyl)eth-enesulfonamide] |

| Compound | IC50 [1] [nM] | IC50 [2] [nM] | IC50 [3] [nM] | FGFR1 Enz kobs [4] [min⁻¹] | IC50 [5] [nM] |
| --- | --- | --- | --- | --- | --- |
| C=CC(=O)N1C2CC1CN(C(=O)N1CCC(n3cc(-c4cc(OC)c5c(C#N)cnn5c4)cn3)CC1)C2 [Example 1, 6-(1-(1-(6-acryloyl-3,6-diazabicyclo[3.1.1]heptane-3-carbonyl)piperidin-4-yl)-1H-pyrazol-4-yl)-4-methoxypyrazolo[1,5-a]pyridine-3-carbonitrile] | 5 | 50 | 15 | 0.00122 | 5 |
| C=CC(=O)N1C2COCC1CN(C(=O)N1CCC(n3cc(-c4cc(OC)c5c(C#N)cnn5c4)cn3)CC1)C2 [Example 3, 6-(1-(1-(9-acryloyl-3-oxa-7,9-diazabicyclo[3.3.1]nonane-7-carbonyl)piperidin-4-yl)-1H-pyrazol-4-yl)-4-methoxypyrazolo[1,5-a]pyridine-3-carbonitrile] | 8 | 44 | 5 | 0.00172 | 2 |
